pIC50: −log10 of the molar value.
Test system: Plasmodium berghei
Experiment: Luciferase/luciferin-expressing antifolate-resistant parasites were used to infect a culture of HepG2 cells that were pre-incubated with compounds. Infected hepatocytes emit light due to the luciferase reaction. Assay results are presented as the percent inhibition of light emission compared to control. […]
Assay type: functional
Details: sporozoite; for IC90: read-out: LUCIFERASE INFECTION ASSAY - IC90

SMILES	IC90 [µM]	further results
CNC(=O)NC(=O)COc1ccccc1C#N	> 10	pIC50 (FFLUC_HILL_SLOPE 16.2, FFLUC_R_SQUARED 0.422, read-out: LUCIFERASE INFECTION ASSAY - IC50): < 5.00
O=C(/C(=N/Nc1ccc(Cl)cc1Cl)C(=O)C(F)(F)F)c1cccs1	5.87	pIC50 (FFLUC_HILL_SLOPE 16.5, FFLUC_R_SQUARED 0.242, PBLUC_HILL_SLOPE 1.77, PBLUC_R_SQUARED 0.602, read-out: LUCIFERASE INFECTION ASSAY - IC50): 5.77
Cc1nc(SCC(=O)Nc2nc(Br)sc2Cc2ccc([N+](=O)[O-])cc2)sc1Cc1ccccc1	> 10	pIC50 (FFLUC_HILL_SLOPE 16.2, FFLUC_R_SQUARED 0.412, read-out: LUCIFERASE INFECTION ASSAY - IC50): < 5.00
N#Cc1c(SCC(=O)c2ccccc2)nc2c(c1-c1cccs1)CCCC2	> 8.45	pIC50 (FFLUC_HILL_SLOPE 16.5, FFLUC_R_SQUARED 0.662, PBLUC_HILL_SLOPE 1.37, PBLUC_R_SQUARED 0.669, read-out: LUCIFERASE INFECTION ASSAY - IC50): 5.44
O=C(Nc1cc(Cl)ccc1N1CCOCC1)c1ccccc1NS(=O)(=O)c1ccc(Br)s1	1.16	pIC50 (FFLUC_HILL_SLOPE 16.2, FFLUC_R_SQUARED 0.517, HEPG2TOX_HILL_SLOPE 1.46, HEPG2TOX_R_SQUARED 0.905, PBLUC_HILL_SLOPE 14.3, PBLUC_R_SQUARED 0.479, read-out: LUCIFERASE INFECTION ASSAY - IC50): 6.00
CCCNC(=O)c1c(NC(=O)c2ccc(Cl)cc2Cl)nc2ccccn12	2.94	pIC50 (FFLUC_HILL_SLOPE 16.3, FFLUC_R_SQUARED 0.135, HEPG2TOX_HILL_SLOPE 2.05, HEPG2TOX_R_SQUARED 0.922, PBLUC_HILL_SLOPE 37.2, PBLUC_R_SQUARED 0.437, read-out: LUCIFERASE INFECTION ASSAY - IC50): 5.56
CCc1ccccc1OCC(=O)Nc1cc(Cl)ccc1N1CCN(C)CC1	> 10	pIC50 (FFLUC_HILL_SLOPE 16.4, FFLUC_R_SQUARED 0.269, read-out: LUCIFERASE INFECTION ASSAY - IC50): < 5.00
CC(=C(C#N)C#N)c1ccc(Cl)cc1	> 16.3	pIC50 (FFLUC_HILL_SLOPE 16.5, FFLUC_R_SQUARED 0.121, read-out: LUCIFERASE INFECTION ASSAY - IC50): < 4.79
Cc1cc(C)cc(C(=O)N(CC2CCCO2)c2nc3ccccc3s2)c1 (centres undefined)	> 10	pIC50 (FFLUC_HILL_SLOPE 16.6, FFLUC_R_SQUARED 0.205, read-out: LUCIFERASE INFECTION ASSAY - IC50): < 5.00
Cc1ccccc1N1C(=O)c2ccccc2C(Cc2ccc(C#N)cc2)(Cc2ccc(C#N)cc2)C1=O	> 10	pIC50 (FFLUC_HILL_SLOPE 16.6, FFLUC_R_SQUARED 0.0411, PBLUC_HILL_SLOPE 0.772, PBLUC_R_SQUARED 0.177, read-out: LUCIFERASE INFECTION ASSAY - IC50): < 5.00
C=C(C)C(=O)Oc1cccc(Oc2c(F)c(F)c(-c3c(F)c(F)c(Oc4cccc(OC(=O)C(=C)C)c4)c(F)c3F)c(F)c2F)c1	> 10	pIC50 (FFLUC_HILL_SLOPE 16.5, FFLUC_R_SQUARED 0.83, read-out: LUCIFERASE INFECTION ASSAY - IC50): < 5.00
CC(NCC(=O)N1c2ccc(S(N)(=O)=O)cc2CC1C)C1CC2CCC1C2 (centres undefined)	7.51	pIC50 (FFLUC_HILL_SLOPE 16.6, FFLUC_R_SQUARED 0.154, PBLUC_HILL_SLOPE 1.1, PBLUC_R_SQUARED 0.764, read-out: LUCIFERASE INFECTION ASSAY - IC50): 5.99
Cc1c(C(=O)Nc2ncccc2O)[nH]c2c1C(=O)CCC2	> 10	pIC50 (FFLUC_HILL_SLOPE 16.5, FFLUC_R_SQUARED 0.153, HEPG2TOX_HILL_SLOPE 5.63, HEPG2TOX_R_SQUARED 0.429, read-out: LUCIFERASE INFECTION ASSAY - IC50): < 5.00
O=C(CN1CCC(c2c[nH]c3ccccc23)CC1)Nc1ccc(Cl)c([N+](=O)[O-])c1	9.15	pIC50 (FFLUC_HILL_SLOPE 16.3, FFLUC_R_SQUARED 0.426, PBLUC_HILL_SLOPE 3.46, PBLUC_R_SQUARED 0.601, read-out: LUCIFERASE INFECTION ASSAY - IC50): 5.31
CCN(CC)S(=O)(=O)c1ccc(OC(C)C)c(NC(=O)c2cc(C3CC3)nc3c2cnn3C(C)C)c1	> 10	pIC50 (FFLUC_HILL_SLOPE 16.5, FFLUC_R_SQUARED 0.255, read-out: LUCIFERASE INFECTION ASSAY - IC50): < 5.00
CCC(C)c1ccc(NC(=O)c2ccc[nH]c2=S)cc1 (centres undefined)	> 10	pIC50 (FFLUC_HILL_SLOPE 16.3, FFLUC_R_SQUARED 0.684, PBLUC_HILL_SLOPE 0.824, PBLUC_R_SQUARED 0.804, read-out: LUCIFERASE INFECTION ASSAY - IC50): 5.15

SMILES	IC90 [µM]	further results
Cc1ccc(/C=N/n2c(-c3cc(C)c(C)cc3C)cs/c2=N\CC2CCCO2)o1 (centres undefined)	3.52	pIC50 (FFLUC_HILL_SLOPE 16.3, FFLUC_R_SQUARED 0.0442, HEPG2TOX_HILL_SLOPE 1.44, HEPG2TOX_R_SQUARED 0.874, PBLUC_HILL_SLOPE 40.1, PBLUC_R_SQUARED 0.415, read-out: LUCIFERASE INFECTION ASSAY - IC50): 5.48
Cc1cc(N2CCN(C(=O)c3cc(-c4ccccc4)nc4c3cnn4C(C)C)CC2)nc(C(C)C)n1	> 10	pIC50 (FFLUC_HILL_SLOPE 16.4, FFLUC_R_SQUARED 0.735, read-out: LUCIFERASE INFECTION ASSAY - IC50): < 5.00
CCCCCCCc1ccc(C(=O)Nc2ccc(F)c(Cl)c2)cc1	> 9.49	pIC50 (FFLUC_HILL_SLOPE 16.3, FFLUC_R_SQUARED 0.0372, PBLUC_HILL_SLOPE 1.73, PBLUC_R_SQUARED 0.521, read-out: LUCIFERASE INFECTION ASSAY - IC50): 5.31
FC(F)(F)c1nc2ccccc2nc1-n1nccc1-c1ccc(Cl)cc1	> 8.81	pIC50 (FFLUC_HILL_SLOPE 16.3, FFLUC_R_SQUARED 0.637, HEPG2TOX_HILL_SLOPE 7.13, HEPG2TOX_R_SQUARED 0.448, PBLUC_HILL_SLOPE 3.24, PBLUC_R_SQUARED 0.732, read-out: LUCIFERASE INFECTION ASSAY - IC50): 5.29
FC(F)(F)Oc1ccc(Nc2n[nH]c(=S)s2)cc1	5	pIC50 (FFLUC_HILL_SLOPE 16.2, FFLUC_R_SQUARED 0.24, PBLUC_HILL_SLOPE 2.38, PBLUC_R_SQUARED 0.611, read-out: LUCIFERASE INFECTION ASSAY - IC50): 5.70
CCOC(=O)Cc1nn(Cc2nc(-c3ccc4c(c3)C(C)(C)CCC4(C)C)cs2)c(=O)c2ccccc12	2.02	pIC50 (FFLUC_HILL_SLOPE 16.2, FFLUC_R_SQUARED 0.167, PBLUC_HILL_SLOPE 1.27, PBLUC_R_SQUARED 0.666, read-out: LUCIFERASE INFECTION ASSAY - IC50): 6.45
Cc1ccc(S(=O)(=O)N2CCN(C(=O)/C=C/c3ccsc3)CC2)cc1	> 10	pIC50 (FFLUC_HILL_SLOPE 16.5, FFLUC_R_SQUARED 0.182, read-out: LUCIFERASE INFECTION ASSAY - IC50): < 5.00
CCCc1cc(=O)n(-c2ccc(Cl)cc2)[nH]1	5.8	pIC50 (FFLUC_HILL_SLOPE 16.5, FFLUC_R_SQUARED 0.266, HEPG2TOX_HILL_SLOPE 6.52, HEPG2TOX_R_SQUARED 0.85, PBLUC_HILL_SLOPE 14.3, PBLUC_R_SQUARED 0.712, read-out: LUCIFERASE INFECTION ASSAY - IC50): 5.30
O=C(NNC(=O)c1ccccn1)c1ccc(C2SCCCS2)cc1	> 10	pIC50 (FFLUC_HILL_SLOPE 16.5, FFLUC_R_SQUARED 0.524, PBLUC_HILL_SLOPE 17.5, PBLUC_R_SQUARED 0.078, read-out: LUCIFERASE INFECTION ASSAY - IC50): 5.04
CC(C)c1cccc(C(C)C)c1NC(=O)COc1ccc(CCO)cc1-n1nc2ccccc2n1	6.85	pIC50 (FFLUC_HILL_SLOPE 16.3, FFLUC_R_SQUARED 0.284, PBLUC_HILL_SLOPE 3.54, PBLUC_R_SQUARED 0.756, read-out: LUCIFERASE INFECTION ASSAY - IC50): 5.43
O=C(N/N=C/c1ccccc1C(F)(F)F)c1[nH]c2ccccc2c1-c1ccccc1	1.07	pIC50 (FFLUC_HILL_SLOPE 16.3, FFLUC_R_SQUARED 0.334, HEPG2TOX_HILL_SLOPE 1.94, HEPG2TOX_R_SQUARED 0.976, PBLUC_HILL_SLOPE 7.87, PBLUC_R_SQUARED 0.839, read-out: LUCIFERASE INFECTION ASSAY - IC50): 6.09
CC1c2ccsc2CCN1C(=S)NC(=O)c1cccs1 (centres undefined)	> 10.2	pIC50 (FFLUC_HILL_SLOPE 16.3, FFLUC_R_SQUARED 0.288, HEPG2TOX_HILL_SLOPE 6.88, HEPG2TOX_R_SQUARED 0.689, PBLUC_HILL_SLOPE 3.81, PBLUC_R_SQUARED 0.3, read-out: LUCIFERASE INFECTION ASSAY - IC50): 5.21
Cc1nc(Nc2ccc(C(=O)N(C)C)cc2)c2c(-c3ccccc3)csc2n1	8.69	pIC50 (FFLUC_HILL_SLOPE 16.2, FFLUC_R_SQUARED 0.398, PBLUC_HILL_SLOPE 15.9, 4.17, PBLUC_R_SQUARED 0.757, 0.868, read-out: LUCIFERASE INFECTION ASSAY - IC50): 5.13
COc1ccc(OCc2cc(C(=O)NCc3ccccc3)c(C)o2)cc1	> 10	pIC50 (FFLUC_HILL_SLOPE 16.5, FFLUC_R_SQUARED 0.199, HEPG2TOX_HILL_SLOPE 9.38, HEPG2TOX_R_SQUARED 0.316, read-out: LUCIFERASE INFECTION ASSAY - IC50): < 5.00
Cc1nc2ncnn2c(N2CCc3ccccc3C2)c1Cl	6.09	pIC50 (FFLUC_HILL_SLOPE 16.4, FFLUC_R_SQUARED 0.0433, HEPG2TOX_HILL_SLOPE 1.21, HEPG2TOX_R_SQUARED 0.855, PBLUC_HILL_SLOPE 2.02, PBLUC_R_SQUARED 0.689, read-out: LUCIFERASE INFECTION ASSAY - IC50): 5.69
COc1ccc(N2C(=O)C=CC2=O)cc1	> 16.2	pIC50 (FFLUC_HILL_SLOPE 16.4, FFLUC_R_SQUARED 0.242, read-out: LUCIFERASE INFECTION ASSAY - IC50): < 4.79

Source: ChEMBL document CHEMBL4483862, “Open-source discovery of chemical leads for next-generation chemoprotective antimalarials” (2018)
